Reference: US20250009709A1, “PRENYLATED CHALCONE AND FLAVONOID COMPOSITIONS FOR USE IN TREATING CANCER” (INNOX CORP., priority 2021, published 2025)

Test system: pCrkl
Assay: pCrkl level in K562-IS cells
Type: cell-based
Settings: 1000 nM imatinib, data not shown
Description: The effect of the drug substance on chronic myelogenous leukemic (CML) cells was tested using a K562 cell line model.

Compound: Cc1ccc(NC(=O)c2ccc(CN3CCN(C)CC3)cc2)cc1Nc1nccc(-c2cccnc2)n1 [imatinib]
- pCrkl level in comparison with non-treated controls: did not significantly change
